Measured values as given in US20250312462A1, “PAK1 DEGRADERS AND METHODS OF USE THEREOF” (INSTITUTE FOR CANCER RESEARCH D/B/A THE RESEARCH INSTITUTE …, priority 2022, published 2025).

How the values were obtained:
Test in all cases: KINOMEscan
Settings in all cases: read-out: Percent Control
[1] = molecular target: CAMKK2 (Homo sapiens, UniProt Q96RR4)
Procedure: (§1) The kinase engagement assay (KINOMEscan®) was performed by DiscoverX assessing binding abilities toward a set of kinases.

[2] = molecular target: TTK (Homo sapiens, UniProt P33981)
Procedure: as §1

[3] = molecular target: MUSK (Homo sapiens, UniProt O15146)
Procedure: as §1

[4] = molecular target: ERK8 (Homo sapiens, UniProt Q8TD08)
Sequence of ERK8 (Q8TD08 whole entry): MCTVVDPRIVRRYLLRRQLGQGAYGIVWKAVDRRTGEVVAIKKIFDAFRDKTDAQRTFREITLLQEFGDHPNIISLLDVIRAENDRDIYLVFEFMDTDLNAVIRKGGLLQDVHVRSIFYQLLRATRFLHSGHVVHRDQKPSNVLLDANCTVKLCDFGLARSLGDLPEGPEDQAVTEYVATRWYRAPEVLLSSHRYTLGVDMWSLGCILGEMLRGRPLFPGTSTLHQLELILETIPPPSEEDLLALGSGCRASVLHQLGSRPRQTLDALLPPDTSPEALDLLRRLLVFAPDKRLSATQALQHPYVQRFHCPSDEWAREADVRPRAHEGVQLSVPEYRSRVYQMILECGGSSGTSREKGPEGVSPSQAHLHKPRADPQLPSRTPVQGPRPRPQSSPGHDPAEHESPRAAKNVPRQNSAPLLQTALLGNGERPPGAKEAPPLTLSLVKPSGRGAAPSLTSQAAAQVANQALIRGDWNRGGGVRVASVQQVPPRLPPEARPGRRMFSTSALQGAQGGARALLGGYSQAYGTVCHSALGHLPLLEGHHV
Procedure: as §1

[5] = molecular target: PHKG1 (Homo sapiens, UniProt Q16816)
Sequence of PHKG1 (Q16816 whole entry): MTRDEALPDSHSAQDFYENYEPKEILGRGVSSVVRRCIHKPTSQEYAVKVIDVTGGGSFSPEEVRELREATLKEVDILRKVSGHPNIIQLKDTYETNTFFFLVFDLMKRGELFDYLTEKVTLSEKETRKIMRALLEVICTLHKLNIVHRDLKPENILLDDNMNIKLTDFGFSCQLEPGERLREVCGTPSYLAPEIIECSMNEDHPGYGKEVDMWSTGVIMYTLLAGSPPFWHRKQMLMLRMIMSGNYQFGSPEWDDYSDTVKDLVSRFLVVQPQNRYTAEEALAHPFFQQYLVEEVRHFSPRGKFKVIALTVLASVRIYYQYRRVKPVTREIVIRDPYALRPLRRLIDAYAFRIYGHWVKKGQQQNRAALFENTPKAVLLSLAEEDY
Procedure: as §1

[6] = molecular target: HIPK4 (Homo sapiens, UniProt Q8NE63)
Procedure: as §1

[7] = molecular target: MRCKB (Homo sapiens, UniProt Q9Y5S2)
Sequence of MRCKB (Q9Y5S2 whole entry): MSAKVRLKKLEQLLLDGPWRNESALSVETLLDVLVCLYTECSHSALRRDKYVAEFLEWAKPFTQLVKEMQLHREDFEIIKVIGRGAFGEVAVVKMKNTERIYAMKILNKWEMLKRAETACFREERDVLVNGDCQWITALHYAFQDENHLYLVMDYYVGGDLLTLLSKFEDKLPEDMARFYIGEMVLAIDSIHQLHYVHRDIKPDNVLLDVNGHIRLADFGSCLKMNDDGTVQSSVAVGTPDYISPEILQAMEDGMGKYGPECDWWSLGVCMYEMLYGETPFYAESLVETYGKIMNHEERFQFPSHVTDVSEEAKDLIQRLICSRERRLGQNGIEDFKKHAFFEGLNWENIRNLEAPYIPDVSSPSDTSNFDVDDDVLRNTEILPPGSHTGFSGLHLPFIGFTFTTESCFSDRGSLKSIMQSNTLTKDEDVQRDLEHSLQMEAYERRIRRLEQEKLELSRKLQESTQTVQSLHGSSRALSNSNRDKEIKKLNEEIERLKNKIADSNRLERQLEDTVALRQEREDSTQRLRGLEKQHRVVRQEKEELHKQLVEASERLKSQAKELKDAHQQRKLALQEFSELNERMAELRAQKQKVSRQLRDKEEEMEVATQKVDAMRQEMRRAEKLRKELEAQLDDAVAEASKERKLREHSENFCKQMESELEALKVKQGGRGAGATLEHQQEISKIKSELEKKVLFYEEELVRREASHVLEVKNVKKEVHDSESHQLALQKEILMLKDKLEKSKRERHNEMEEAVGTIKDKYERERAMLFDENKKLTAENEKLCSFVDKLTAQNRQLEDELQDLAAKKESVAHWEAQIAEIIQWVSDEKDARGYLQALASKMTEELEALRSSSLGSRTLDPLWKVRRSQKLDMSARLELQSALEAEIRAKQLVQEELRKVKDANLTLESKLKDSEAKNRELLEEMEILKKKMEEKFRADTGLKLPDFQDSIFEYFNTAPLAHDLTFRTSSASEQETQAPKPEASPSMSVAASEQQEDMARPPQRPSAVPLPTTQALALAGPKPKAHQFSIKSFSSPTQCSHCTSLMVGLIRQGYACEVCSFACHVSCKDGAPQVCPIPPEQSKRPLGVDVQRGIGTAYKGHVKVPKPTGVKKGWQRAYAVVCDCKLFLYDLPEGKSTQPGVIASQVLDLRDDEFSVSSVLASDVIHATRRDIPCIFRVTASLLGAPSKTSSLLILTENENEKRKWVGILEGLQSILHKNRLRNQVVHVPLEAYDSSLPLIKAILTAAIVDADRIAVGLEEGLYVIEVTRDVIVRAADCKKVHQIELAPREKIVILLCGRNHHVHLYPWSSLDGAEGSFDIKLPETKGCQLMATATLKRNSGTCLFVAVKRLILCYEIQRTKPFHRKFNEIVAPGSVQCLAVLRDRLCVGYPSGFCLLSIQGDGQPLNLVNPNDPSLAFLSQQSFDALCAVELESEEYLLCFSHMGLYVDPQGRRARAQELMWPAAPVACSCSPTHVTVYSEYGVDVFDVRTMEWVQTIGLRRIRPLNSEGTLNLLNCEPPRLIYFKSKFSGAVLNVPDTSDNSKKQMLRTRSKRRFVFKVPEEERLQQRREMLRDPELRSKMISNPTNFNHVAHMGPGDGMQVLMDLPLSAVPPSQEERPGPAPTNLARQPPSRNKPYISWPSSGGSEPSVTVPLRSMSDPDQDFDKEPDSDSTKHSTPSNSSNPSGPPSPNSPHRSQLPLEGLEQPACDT
Procedure: as §1

[8] = molecular target: STK39 (Homo sapiens, UniProt Q9UEW8)
Procedure: as §1

[9] = molecular target: ASK1 (Homo sapiens, UniProt Q99683)
Sequence of ASK1 (Q99683 whole entry): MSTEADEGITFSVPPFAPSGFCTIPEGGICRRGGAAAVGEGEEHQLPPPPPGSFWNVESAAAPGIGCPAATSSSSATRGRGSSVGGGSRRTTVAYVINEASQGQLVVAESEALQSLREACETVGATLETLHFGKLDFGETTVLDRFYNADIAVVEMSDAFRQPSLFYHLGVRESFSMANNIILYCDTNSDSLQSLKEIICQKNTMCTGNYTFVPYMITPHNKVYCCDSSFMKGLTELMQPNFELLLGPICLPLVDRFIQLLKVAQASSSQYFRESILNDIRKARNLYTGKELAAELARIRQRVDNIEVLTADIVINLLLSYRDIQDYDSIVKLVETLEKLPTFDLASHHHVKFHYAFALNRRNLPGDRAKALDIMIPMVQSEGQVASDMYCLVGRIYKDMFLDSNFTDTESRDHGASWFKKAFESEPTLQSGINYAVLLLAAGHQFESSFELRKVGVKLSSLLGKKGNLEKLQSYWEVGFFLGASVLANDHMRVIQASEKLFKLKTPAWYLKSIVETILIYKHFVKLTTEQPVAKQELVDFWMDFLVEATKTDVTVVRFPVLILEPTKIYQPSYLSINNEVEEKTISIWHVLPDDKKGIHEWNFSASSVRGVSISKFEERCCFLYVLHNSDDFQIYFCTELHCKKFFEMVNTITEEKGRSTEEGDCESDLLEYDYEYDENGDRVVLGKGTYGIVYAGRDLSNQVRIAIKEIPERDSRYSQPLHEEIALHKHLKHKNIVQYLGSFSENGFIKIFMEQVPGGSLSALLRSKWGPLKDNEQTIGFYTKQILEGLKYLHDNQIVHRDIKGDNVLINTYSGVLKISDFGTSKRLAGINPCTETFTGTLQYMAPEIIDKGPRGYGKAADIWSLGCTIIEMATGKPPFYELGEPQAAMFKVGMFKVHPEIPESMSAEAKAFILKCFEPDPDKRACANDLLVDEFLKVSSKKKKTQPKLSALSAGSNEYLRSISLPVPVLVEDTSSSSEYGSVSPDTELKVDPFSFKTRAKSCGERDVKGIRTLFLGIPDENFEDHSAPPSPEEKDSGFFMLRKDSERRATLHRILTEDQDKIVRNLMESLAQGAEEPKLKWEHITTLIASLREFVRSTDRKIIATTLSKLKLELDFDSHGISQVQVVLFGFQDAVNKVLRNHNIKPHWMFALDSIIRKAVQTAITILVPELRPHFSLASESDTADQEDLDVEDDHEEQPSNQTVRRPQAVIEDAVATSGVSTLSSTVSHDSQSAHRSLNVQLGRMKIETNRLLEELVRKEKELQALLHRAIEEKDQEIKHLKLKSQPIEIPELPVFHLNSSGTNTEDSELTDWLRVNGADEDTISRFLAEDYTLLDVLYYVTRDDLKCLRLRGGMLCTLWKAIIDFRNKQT
Procedure: as §1

[10] = molecular target: ABL1(F317L)-nonphosphorylated (Homo sapiens, UniProt P00519, F317L)
Procedure: as §1

[11] = molecular target: ASK2 (Homo sapiens, UniProt O95382)
Procedure: as §1

[12] = molecular target: CSNK1G2 (Homo sapiens, UniProt P78368)
Sequence of CSNK1G2 (P78368 whole entry): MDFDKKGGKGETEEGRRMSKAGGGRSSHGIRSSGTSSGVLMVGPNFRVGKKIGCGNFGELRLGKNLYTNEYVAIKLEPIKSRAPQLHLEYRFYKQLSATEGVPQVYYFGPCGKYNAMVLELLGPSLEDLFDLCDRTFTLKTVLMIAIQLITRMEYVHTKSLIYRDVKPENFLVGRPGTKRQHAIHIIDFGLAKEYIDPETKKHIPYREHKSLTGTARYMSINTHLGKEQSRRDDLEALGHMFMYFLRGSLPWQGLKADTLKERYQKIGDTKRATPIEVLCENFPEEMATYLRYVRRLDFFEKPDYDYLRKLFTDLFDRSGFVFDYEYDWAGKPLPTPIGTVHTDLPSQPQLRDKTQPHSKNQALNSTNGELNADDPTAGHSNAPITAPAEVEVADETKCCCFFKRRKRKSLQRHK
Procedure: as §1

[13] = molecular target: TLK2 (Homo sapiens, UniProt Q86UE8)
Procedure: as §1

[14] = molecular target: EPHA4 (Homo sapiens, UniProt P54764)
Procedure: as §1

[15] = molecular target: LZK (Homo sapiens, UniProt O43283)
Procedure: as §1

[16] = molecular target: ACVR1B (Homo sapiens, UniProt P36896)
Procedure: as §1

[17] = molecular target: CDK11 (Homo sapiens, UniProt Q9BWU1)
Sequence of CDK11 (Q9BWU1 whole entry): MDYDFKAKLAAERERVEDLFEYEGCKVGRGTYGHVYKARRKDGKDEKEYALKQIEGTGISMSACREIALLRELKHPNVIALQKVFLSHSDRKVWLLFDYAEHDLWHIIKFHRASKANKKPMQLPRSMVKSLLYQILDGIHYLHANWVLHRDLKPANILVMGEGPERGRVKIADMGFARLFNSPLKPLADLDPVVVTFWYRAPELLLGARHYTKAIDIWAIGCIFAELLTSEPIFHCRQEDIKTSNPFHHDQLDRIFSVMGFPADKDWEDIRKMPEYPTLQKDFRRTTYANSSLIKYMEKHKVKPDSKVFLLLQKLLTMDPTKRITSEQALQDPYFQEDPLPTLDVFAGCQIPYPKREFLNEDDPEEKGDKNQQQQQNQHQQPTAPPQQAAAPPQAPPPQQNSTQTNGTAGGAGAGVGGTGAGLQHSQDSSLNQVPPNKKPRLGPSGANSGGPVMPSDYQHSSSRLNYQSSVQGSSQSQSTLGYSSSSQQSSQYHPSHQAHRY
Procedure: as §1

[18] = molecular target: FGFR3 (Homo sapiens, UniProt P22607)
Procedure: as §1

[19] = molecular target: TAOK3 (Homo sapiens, UniProt Q9H2K8)
Procedure: as §1

[20] = molecular target: DDR2 (Homo sapiens, UniProt Q16832)
Procedure: as §1

[21] = molecular target: GSK3B (Homo sapiens, UniProt P49841)
Procedure: as §1

[22] = molecular target: PKAC-alpha (Homo sapiens, UniProt P17612)
Procedure: as §1

[23] = molecular target: KIT(A829P) (Homo sapiens, UniProt P10721, A829P)
Procedure: as §1

[24] = molecular target: ULK3 (Homo sapiens, UniProt Q6PHR2)
Procedure: as §1

[25] = molecular target: PIK3C2G (Homo sapiens, UniProt O75747)
Procedure: as §1

[26] = molecular target: PKN1 (Homo sapiens, UniProt Q16512)
Procedure: as §1

[27] = molecular target: CSNK2A1 (Homo sapiens, UniProt P68400)
Procedure: as §1

[28] = molecular target: BMPR1A (Homo sapiens, UniProt P36894)
Procedure: as §1

[29] = molecular target: EPHA1 (Homo sapiens, UniProt P21709)
Procedure: as §1

[30] = molecular target: PLK3 (Homo sapiens, UniProt Q9H4B4)
Procedure: as §1

[31] = molecular target: RIOK2 (Homo sapiens, UniProt Q9BVS4)
Procedure: as §1

[32] = molecular target: BMPR2 (Homo sapiens, UniProt Q13873)
Procedure: as §1

[33] = molecular target: DYRK1A (Homo sapiens, UniProt Q13627)
Procedure: as §1

[34] = molecular target: MINK (Homo sapiens, UniProt Q8N4C8)
Procedure: as §1

[35] = molecular target: MKK7 (Homo sapiens, UniProt O14733)
Procedure: as §1

[36] = molecular target: PIK3CA(M1043I) (Homo sapiens, UniProt P42336, M1043I)
Procedure: as §1

[37] = molecular target: PIP5K2C (Homo sapiens, UniProt Q8TBX8)
Procedure: as §1

[38] = molecular target: SGK (Homo sapiens, UniProt O00141)
Procedure: as §1

O=C1CCC(N2C(=O)c3cccc(NCCCCCCCCNC(=O)N4CC[C@H](NC5=Nc6cc(F)ccc6N(CC(F)F)c6ccc(Cl)cc65)C4)c3C2=O)C(=O)N1 (stereo partly drawn) [BJG-05-039, (3S)-3-((2-Chloro-5-(2,2-difluoroethyl)-8-fluoro-5H-dibenzo[b,e][1,4]diazepin-11-yl)amino)-N-(8-((2-(2,6-dioxopiperidin-3-yl)-1,3-dioxoisoindolin-4-yl)amino)octyl)pyrrolidine-1-carboxamide]
remaining binding at 10 µM [1]: 46%
remaining binding at 10 µM [2]: 55%
remaining binding at 10 µM [3]: 60%
remaining binding at 10 µM [4]: 63%
remaining binding at 10 µM [5]: 65%
remaining binding at 10 µM [6]: 67%
remaining binding at 10 µM [7]: 67%
remaining binding at 10 µM [8]: 70%
remaining binding at 10 µM [9]: 73%
remaining binding at 10 µM [10]: 77%
remaining binding at 10 µM [11]: 78%
remaining binding at 10 µM [12]: 78%
remaining binding at 10 µM [13]: 80%
remaining binding at 10 µM [14]: 82%
remaining binding at 10 µM [15]: 82%
remaining binding at 10 µM [16]: 85%
remaining binding at 10 µM [17]: 85%
remaining binding at 10 µM [18]: 85%
remaining binding at 10 µM [19]: 85%
remaining binding at 10 µM [20]: 86%
remaining binding at 10 µM [21]: 90%
remaining binding at 10 µM [22]: 90%
remaining binding at 10 µM [23]: 92%
remaining binding at 10 µM [24]: 92%
remaining binding at 10 µM [25]: 95%
remaining binding at 10 µM [26]: 95%
remaining binding at 10 µM [27]: 96%
remaining binding at 10 µM [28]: 98%
remaining binding at 10 µM [29]: 98%
remaining binding at 10 µM [30]: 99%
remaining binding at 10 µM [31]: 99%
remaining binding at 10 µM [32]: 100%
remaining binding at 10 µM [33]: 100%
remaining binding at 10 µM [34]: 100%
remaining binding at 10 µM [35]: 100%
remaining binding at 10 µM [36]: 100%
remaining binding at 10 µM [37]: 100%
remaining binding at 10 µM [38]: 100%
